Test results as given in paper PMC8583760, “Pharmacokinetic interaction between rhynchopylline and pellodendrine via CYP450 enzymes and P-gp” (Pharmaceutical Biology, 2021).

Assays:
CYP2C9 = test system: T1, CYP2C9; test: CYP probe substrate depletion in rat liver microsomes, HPLC; type: biochemical; details: typical CYP2C9 substrate (not named); 0-100 μM inhibitor
T1 construct: gene Cyp2c11; native enzyme activity in rat liver microsomes

CYP1A2 = target: T2, CYP1A2 (Rattus norvegicus, UniProt P04799); test: as above; type: biochemical; details: typical CYP1A2 substrate (not named); 0-100 μM inhibitor
T2 construct: native full-length enzyme in rat liver microsomes
T2 sequence (P04799 2-513): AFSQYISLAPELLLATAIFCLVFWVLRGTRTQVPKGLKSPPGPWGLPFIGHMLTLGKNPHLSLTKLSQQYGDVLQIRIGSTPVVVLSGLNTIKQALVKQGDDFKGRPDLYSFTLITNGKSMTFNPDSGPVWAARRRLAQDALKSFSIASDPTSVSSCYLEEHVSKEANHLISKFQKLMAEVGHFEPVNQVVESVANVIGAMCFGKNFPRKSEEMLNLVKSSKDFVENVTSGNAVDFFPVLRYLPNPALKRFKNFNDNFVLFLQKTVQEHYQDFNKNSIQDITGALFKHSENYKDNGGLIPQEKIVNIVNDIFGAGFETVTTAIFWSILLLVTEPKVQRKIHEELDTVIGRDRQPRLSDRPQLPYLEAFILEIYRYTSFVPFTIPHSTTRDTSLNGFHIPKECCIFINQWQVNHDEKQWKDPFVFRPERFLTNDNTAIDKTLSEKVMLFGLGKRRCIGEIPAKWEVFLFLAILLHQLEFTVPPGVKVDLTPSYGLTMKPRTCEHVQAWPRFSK

IC50 (CYP2C9): 16.2 µM | IC50 (CYP1A2): 23 µM
Compound: COc1cc2c(cc1O)C[C@H]1c3cc(O)c(OC)cc3CC[N@@+]1(C)C2 [pellodendrine]
